{"source": "patent US20240327411A1", "about": "“SIRT6 ACTIVATORS” (The Board of Regents of The University of Texas System, priority 2022, published 2024)", "key": {"HCC tumor": {"test_system": "HCC tumor", "settings": "mouse xenograft models; literature; cited from earlier work"}, "[1]": {"test_system": "human hepatocellular carcinoma (HCC) cells", "settings": "literature, cited from earlier work"}, "[2]": {"test_system": "colorectal cancer (CRC) cell lines", "settings": "various CRC cell lines; literature; cited from earlier work"}, "CRC tumor": {"test_system": "CRC tumor", "settings": "cell line- and patient-derived xenografts, APCmin/+ spontaneous CRC model; literature; cited from earlier work"}, "[3]": {"settings": "in mice; literature; cited from earlier work"}, "Sirt1, 2, and 3": {"test_system": "Sirt1, 2, and 3", "settings": "literature; cited from earlier work"}, "BV2 cells": {"test_system": "BV2 cells", "experiment": "LPS-induced inflammatory gene mRNA expression in BV2 cells, q-PCR", "format": "cell-based, murine", "settings": "BV2 cells, 30 μM pretreatment 30 minutes, 100 ng/mL LPS 6 hours, mRNA"}, "SARS-CoV-2": {"test_system": "SARS-CoV-2", "experiment": "microbe, parasite or virus in culture", "format": "cell-based"}, "Sirt6": {"molecular_target": "Sirt6 (Homo sapiens, UniProt Q8N6T7)", "sequence (Q8N6T7 whole entry)": "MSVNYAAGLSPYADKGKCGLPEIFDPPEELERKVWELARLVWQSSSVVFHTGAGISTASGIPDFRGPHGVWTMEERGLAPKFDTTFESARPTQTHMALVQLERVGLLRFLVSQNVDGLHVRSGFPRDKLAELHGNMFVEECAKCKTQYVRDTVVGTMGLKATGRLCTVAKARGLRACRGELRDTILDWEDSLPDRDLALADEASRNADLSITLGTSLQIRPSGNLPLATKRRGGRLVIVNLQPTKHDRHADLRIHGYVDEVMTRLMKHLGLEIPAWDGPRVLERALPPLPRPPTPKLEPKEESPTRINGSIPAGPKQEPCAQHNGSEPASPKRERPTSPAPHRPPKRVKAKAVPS", "settings": "literature value; cited from earlier work"}}, "data": [{"smiles": "COC(=O)c1cc(NS(=O)(=O)c2cc(Cl)cc(Cl)c2)ccc1S(=O)(=O)Nc1cc(Br)c(F)cc1C", "note": "[MDL-800]", "values": [{"measurement": "HCC tumor growth", "setting": "HCC tumor", "result": "suppressed HCC tumor growth"}, {"measurement": "H3K9 and H3K56 deacetylation", "setting": "[1]; human HCC cells, dose-dependently", "result": "significantly promoted"}, {"measurement": "proliferation of HCC cells", "setting": "[1]", "result": "inhibited their proliferation"}]}, {"smiles": "Cc1cc(F)c(Br)cc1NS(=O)(=O)c1ccc(NS(=O)(=O)c2cc(Cl)cc(Cl)c2)cc1CN1CCOC[C@H]1C", "note": "[MDL-811]", "values": [{"measurement": "antiproliferative effects", "setting": "[2]", "result": "broad antiproliferative effects"}, {"measurement": "anti-tumor efficacy", "setting": "CRC tumor", "result": "in vivo anti-tumor efficacy"}, {"measurement": "bioavailability (F)", "setting": "[3]", "result": 92.96, "unit": "%"}]}, {"smiles": "c1cncc(C2Nc3ccccc3-n3cccc32)c1", "note": "(stereo not shown) [UBCS039, reference compound]", "values": [{"measurement": "effects on basal Sirt1, 2, and 3 deacetylation activities", "setting": "Sirt1, 2, and 3", "result": "no obvious effects"}, {"measurement": "LPS-induced expression of IL-1β, IL-6, MCP-1, and TNFα", "setting": "BV2 cells", "result": "strongly inhibited"}, {"measurement": "potency in inhibiting SARS-CoV-2 infection (in words)", "setting": "SARS-CoV-2", "result": "micromolar potency"}, {"measurement": "maximum activation (Emax) of Sirt6 deacetylation", "setting": "Sirt6", "result": "~2", "unit": "fold"}]}]}
